{
  "source": "patent US11064704B2",
  "about": "“Natural product formulations with improved residual insect repellent/deterrent activity” (University of Mississippi, priority 2016, dated 2021)",
  "key": {"An. quadrimaculatus": {"test_system": "An. quadrimaculatus", "assay": "in vitro Klun and Debboun (K&D) biting deterrent bioassay", "format": "in vivo, Anopheles quadrimaculatus", "description": "(§1) Experiments were conducted by using a six-celled in vitro Klun and Debboun (K&D) module bioassay system developed by Klun et al. (2005) for quantitative evaluation of biting deterrence. Briefly, the assay system consists of a six well reservoir with each of the 3×4 cm wells containing 6 mL of blood or feeding solution. As described by Ali et al. (2012), a feeding solution consisting of CPDA-1 and ATP was used instead of blood. Green fluorescent tracer dye (www.blacklightworld.com) was used to determine the feeding by the females. Carrot seed essential oil was initially tested to determine the biting deterrent activity. […] Essential oil and carotol were further tested against Ae. aegypti and An. quadrimaculatus in this bioassay. Treatments of carrot seed essential oil at 10 μg/cm^2 and carotol were tested at 10 and 5 μg/cm^2, whereas DEET (97% N,N-diethyl-meta-toluamide) (Sigma Aldrich, St. Louis, Mo.) at 25 nmol/cm^2 was used as positive control. All the treatments were freshly prepared in molecular biology grade 100% ethanol (Fisher Scientific Chemical Co. Fairlawn, N.J.) at the time of bioassay.\nThe temperature of the solution in the reservoirs was maintained at 37° C. by continuously passing warm water through the reservoir using a circulatory bath. The reservoirs were covered with a layer of collagen membrane (Devro, Sandy Run, S.C.). The test compounds were randomly applied to six 4×5 cm areas of organdy cloth and positioned over the membrane-covered CPDA-1+ATP solution with a Teflon® separator placed between the treated cloth and the six-celled module to prevent the contamination of the module. […] The number of mosquitoes biting through organdy treatments in each cell was recorded after a 3 minute exposure, and mosquitoes were prodded back into the cells to check the actual feeding. […] Proportion not biting (PNB) was calculated using the procedure described by Ali et al. (2012)."}, "Aedes aegypti": {"test_system": "Aedes aegypti", "assay": "in vitro Klun and Debboun (K&D) biting deterrent bioassay", "format": "in vivo", "description": "as §1\nThe temperature of the solution in the reservoirs was maintained at 37° C. by continuously passing warm water through the reservoir using a circulatory bath. The reservoirs were covered with a layer of collagen membrane (Devro, Sandy Run, S.C.). The test compounds were randomly applied to six 4×5 cm areas of organdy cloth and positioned over the membrane-covered CPDA-1+ATP solution with a Teflon® separator placed between the treated cloth and the six-celled module to prevent the contamination of the module. A six-celled K&D module containing five female mosquitoes per cell was positioned over cloth treatments covering the six CPDA-1+ATP solution membrane wells, and trap doors were opened to expose the treatments to these females. The number of mosquitoes biting through organdy treatments in each cell was recorded after a 3 minute exposure, and mosquitoes were prodded back into the cells to check the actual feeding. Mosquitoes were squashed and the presence of green fluorescent tracer dye (or not) in the gut was used as an indicator of feeding. A replicate consisted of six treatments: four test compounds, DEET (a standard biting deterrent) and ethanol-treated organdy as solvent control applied randomly. Sets of 5 replications each with 5 females per treatment were conducted on 2-3 different days using newly-treated organdy and a new batch of females in each replication. Treatments were replicated 10-15 times. Proportion not biting (PNB) was calculated using the procedure described by Ali et al. (2012)."}, "Aedes aegypti females [1]": {"test_system": "Aedes aegypti females", "assay": "in vitro A&K (Ali and Khan) repellent bioassay", "format": "in vivo", "details": "for residual repellent activity: time post treatment within range of MED: 11.7 μg/cm^2; for residual repellent activity: time post treatment up to which active / after which MED limit crossed: 23.4 μg/cm^2", "excerpt": "(§2) The A&K (Ali and Khan) bioassay system is based on the concept that the mosquitoes are attracted to warm temperatures, and this system uses warm temperature to serve as stimulus for landing and feeding. The details of the A&K bioassay systems are given in Ali et al. (2017).\n(§3) In summary, this in vitro system consisted of a 30×30×30 cm collapsible aluminum cage (Model 1450B, BioQuip Products, 2321 Gladwick Street, Rancho Dominguez, Calif. 90220, USA) with metal screens. On one panel of the cage, metal screen was replaced with a clear acrylic transparent sheet. […] The blood box had three sides covered with acrylic sheet while the front side was open to insert the feeding device. […] The sliding door served to contain the females inside the cage when the feeding device was pulled out for loading the treatment. This door was slid open when the feeding device was pushed in during the bioassay to expose the females to the treatment.\n(§4) The feeding device had one 3×4 cm rectangular reservoir that contained the feeding solution. The feeding device was connected to the water circulator. The reservoir of the feeding device with feeding solution was covered with a chemical treated collagen sheet. To observe the landing and feeding of female mosquitoes, feeding solution in the reservoir was heated to match the human body temperature using a water circulator which was set at 37° C. The feeding solution had 3-4° C. higher temperature than the solid platform, and this increased temperature of the feeding solution became a better source of attraction and preference for the mosquitoes than the other parts of the feeding device.\n(§5) The rectangular reservoir of the feeding device was filled with the CPDA 1+ATP solution having a few drops of green fluorescent traceable water-soluble dye to serve as a feeding source. A test was started when the 3×4 cm marked areas of collagen were treated with the desired chemical in a volume of 50 μL/[…]. The treated collagen sheet was then secured on the reservoir using a thin layer of high vacuum grease (Dow Corning Corporation, Midland, Mich. 48686). The feeding device was then pushed into the blood box and the sliding door was opened to expose females to the treatment.\n(§6) Stock solutions were made in ethanol. All the dilutions were made in EtOH and applied in a volume of 50 μL covering […] of the collagen sheet. Minimum effective dosage (MED) values in this in vitro bioassay were determined using a method described by Katritzky et al. (2010).\n(§7) The cage contained 200±10, 8-18 day old female mosquitoes. The number of mosquitoes landing and biting were recorded visually for 1 minute. Three or four cages were used at a time, and one treatment was evaluated in a single cage. The minimum dose at which 2 or less mosquitoes (i.e. less than or equal to 1% of 200 females in the cage) started feeding in 1 minute was the minimum effective dose (“MED”). Continuous exposure of the mosquitoes in the cage can result in reduced landing and biting, therefore, 3-4 cages were used and only one replication was completed for each chemical in a single cage. To ensure accuracy of the treatment, rectangular areas of (3×4 cm (12 cm^2) or 7.5×4 cm (30 cm^2) were marked on the collagen that matched the measurement of the rectangular liquid reservoirs. Treatments were applied in a volume of 50 μL (12 cm^2 area) or 107 μL (30 cm^2 area). Treated collagen sheets were secured on a feeding reservoir containing CPDA-1+ATP solution using a thin layer of grease (Dow Corning Corp, Midland, Mich.). The feeding device was pushed inside the blood box and the sliding door was […] to expose the females to the treatment.\n(§8) To ensure the normal activity (≥10% landing), control treatment was repeated after every 5 replications, and the bioassay was stopped if the response was less than the control. The data is presented as MED values with the mean percentage biting (±SEM) in parenthesis. […]"}, "[2]": {"test_system": "Anopheles quadrimaculatus mosquitoes", "assay": "in vitro A&K (Ali and Khan) repellent bioassay", "format": "in vivo", "details": "compared with DEET", "excerpt": "as §2, §3, §4, §5, §6, §7, §8"}, "Aedes aegypti females [3]": {"test_system": "Aedes aegypti females", "details": "literature values; cited from earlier work"}, "[4]": {"details": "12 cm^2 surface area, Table 7/FIG. 7"}, "[5]": {"details": "Table 13/FIG. 13, mixtures 6.25+6.25 μg/cm^2 versus individual applications, species not given"}},
  "data": [
    {"compound": "CC1=CC[C@]2(C)CC[C@@H](C(C)C)[C@]2(O)CC1", "note": "[carotol]", "values": [
      {"measurement": "proportion not biting (PNB)", "setting": "An. quadrimaculatus; 25 nmol/cm^2", "value": 0.72},
      {"measurement": "proportion not biting (PNB)", "setting": "An. quadrimaculatus; 10 μg/cm^2", "value": 0.78},
      {"measurement": "biting deterrent activity", "setting": "An. quadrimaculatus; compared with DEET", "value": "comparable to DEET"},
      {"measurement": "proportion not biting (PNB)", "setting": "Aedes aegypti; 5 μg/cm^2", "value": 0.66},
      {"measurement": "proportion not biting (PNB)", "setting": "Aedes aegypti; 10 μg/cm^2", "value": 0.9},
      {"measurement": "biting deterrent activity", "setting": "Aedes aegypti; compared with DEET", "value": "comparable to DEET"},
      {"measurement": "residual repellent activity: time post treatment within range of MED", "setting": "Aedes aegypti females [1]", "value": "failed"},
      {"measurement": "residual repellent activity: time post treatment up to which active / after which MED limit crossed", "setting": "Aedes aegypti females [1]", "value": 60, "unit": "min"},
      {"measurement": "residual repellent activity: time post treatment up to which active", "setting": "Aedes aegypti females [1]; 46.9 μg/cm^2", "value": 120, "unit": "min"},
      {"measurement": "minimum effective dose (MED)", "setting": "Aedes aegypti females [1]; [4]", "value": 11.7, "unit": "μg/cm^2"},
      {"measurement": "minimum effective dose (MED)", "setting": "Aedes aegypti females [1]; [5]", "value": 25, "unit": "μg/cm^2"},
      {"measurement": "repellent activity", "setting": "Aedes aegypti females [1]; compared with DEET", "value": "comparable to DEET"},
      {"measurement": "repellent activity", "setting": "[2]", "value": "comparable to DEET"}
    ]},
    {"compound": "CCN(CC)C(=O)c1cccc(C)c1", "note": "[DEET, N,N-diethyl-meta-toluamide, reference compound]", "values": [
      {"measurement": "proportion not biting (PNB)", "setting": "Aedes aegypti; 25 nmol/cm^2", "value": 0.85},
      {"measurement": "residual repellent activity: time post treatment within range of MED", "setting": "Aedes aegypti females [1]", "value": 30, "unit": "min"},
      {"measurement": "residual repellent activity: time post treatment up to which active / after which MED limit crossed", "setting": "Aedes aegypti females [1]", "value": 120, "unit": "min"},
      {"measurement": "minimum effective dose (MED)", "setting": "Aedes aegypti females [1]; [4]", "value": 11.7, "unit": "μg/cm^2"},
      {"measurement": "minimum effective dose (MED)", "setting": "Aedes aegypti females [1]; [5]", "value": 25, "unit": "μg/cm^2"},
      {"measurement": "MED values reported by Ali et al. (2012) and Katritzky et al. (2010)", "setting": "Aedes aegypti females [3]", "value": 9, "unit": "μg/cm^2"}
    ]}
  ]
}
